According to patent US20100210694A1 (NICOX S.A., priority 2007, published 2010):
Read-outs that look alike come from different tables or passages of the source.

Assays:
[1] = Hydrolysis in acidic medium (pH 1) and in phosphate buffer (pH 7.4); assay type: physicochemical; settings: for Stability in buffered solutions pH 1 % unchanged after 6 h: HCl 0.1M, pH 1, 37 °C; for Stability in buffered solutions pH 1 % unchanged after 6 h / Stability in buffered solutions pH 7.4 % unchanged after 6 h: 250 μM; for Stability in buffered solutions pH 7.4 % unchanged after 6 h: phosphate buffer 50 mM pH 7.4, 37 °C
Experimental: A solution of each compound of the invention (10 mM) in acetonitrile was added to a HCl 0.1M or to a phosphate buffer 50 mM pH=7.4, containing, when necessary, 10-20% of acetonitrile as cosolvent. The final concentration of the compound was 250 μM. Resulting solution was kept at 37±0.5° C. and at appropriate time intervals a 20 μL aliquote of reaction solution was analysed by RP-HPLC.
(§1) Analyses were carried out with a HP 1100 chromatograph system (Agilent Technologies, Palo Alto, Calif., USA) equipped with a quaternary pump (model G1311A), a membrane degasser (G1379A), a diode-array detector (DAD) (model G1315B) integrated in the HP1100 system. Data analysis was done using a HP ChemStation system (Agilent Technologies). The analytical column was a Nucleosil 100-5018 Nautilus (250×4.6 mm, 5 μm particle size) (Macherey-Nagel). The mobile phase consisting of acetonitrile/water (55/45) with 0.1% trifluoroacetic acid and the flow-rate was 1.2 mL/min. The injection volume was 20 μL (Rheodyne, Cotati, Calif.). The column effluent was monitored at 240 nm (for salicylic acid) and at 226 nm (for all the other products) and referenced against a 360 nm wavelength. Quantitation was done by comparison of peak areas with standards chromatographed under the same conditions. The hydrolysis followed first-order kinetics. The observed pseudo-first-order rate constants (kobs) were calculated from the slopes of linear plots of the natural logarithms of percent remaining products against time and the corresponding half-lives (t1/2) were obtained from […]

[2] = system: rat aorta strips; assay: Vasodilating activity on precontracted rat aorta strips; assay type: cell-based; settings: endothelium-denuded rat aortic strips contracted with 1 μM L-phenylephrine; for EC50: read-out: vasodilating activity EC50 ± SE
Experimental: Thoracic aortas were isolated from male Wistar rats weighing 180-200 g. The endothelium was removed and the vessels were helically cut: three strips were obtained from each aorta. The tissues were mounted under 1.0 g tension in organ baths containing 30 ml of Krebs-bicarbonate buffer with the following composition (mM): NaCl 111.2, KCl 5.0, CaCl2 2.5, MgSO4 1.2, KH2PO4 1.0, NaHCO3 12.0, glucose 11.1, maintained at 37° C. and gassed with 95% O2-5% CO2 (pH=7.4). The aortic strips were allowed to equilibrate for 120 min and then contracted with 1 μM L-phenylephrine. When the response to the agonist reached a plateau, cumulative concentrations of the vasodilating agent were added.
All the compounds of the invention were capable to relax precontracted rat aorta strips in a concentration dependent manner.
When the vasodilator experiments were repeated in the presence of 1 μM ODQ (1H-[1,2,4]oxadiazolo[4,3-a]quinoxalin-1-one), a well known inhibitor of the soluble guanylate cyclase (sGC), a decrease in the vasodilator potencies was observed.

[3] = Hydrolysis in human serum; assay type: in vitro ADME; settings: male, 37 °C, compound 250 μM, read-out: Human serum stability t1/2
Experimental: A solution of each compound of the invention (10 mM) in acetonitrile was added to human serum (from human male AB plasma, Sigma) preheated at 37° C., the final concentration of the compound was 250 μM. Resulting solution were incubated at 37±0.5° C. and at appropriate time intervals 500 μL of reaction mixture was withdrawn and added to 750 μL of acetonitrile containing 0.1% trifluoroacetic acid in order to deproteinize the serum. Sample was sonicated, vortexed and then centrifuged for 10′ at 2150 g. The clear supernatant was filtered by 0.45 μm PTFE filters (Alltech) and analysed by RP-HPLC.
as §1

[4] = system: human platelets; assay: Inhibition of platelet aggregation in vitro; assay type: cell-based; settings: human PRP, collagen 1.0 μg/mL
Experimental: Platelet rich plasma (PRP) is prepared by centrifugation of citrated blood at 200 g for 20 minutes. […] Collagen (1.0 μg/mL) is used as platelet activator in PRP. The inhibitory activity of the compounds is tested by addition of drug to PRP 10 or 30 min before addition of the stimulus.
The antiaggregatory activity of the compounds of the invention is evaluated as % inhibition of platelet aggregation compared to control samples.

[5] = drug added 10 min before stimulus, read-out: Platelet Aggregation IC50 (collagen 95%) 10 min
[6] = drug added 30 min before stimulus, read-out: Platelet Aggregation IC50 (collagen 95%) 30 min

| SMILES | Stability in buffered solutions pH 1 % unchanged after 6 h [1] | Stability in buffered solutions pH 7.4 % unchanged after 6 h [1] | EC50 [2] | half-life at 250 μM [3] | other results |
| --- | --- | --- | --- | --- | --- |
| CC(=O)Oc1ccccc1C(=O)OCOC(=O)c1ccc(SCc2no[n+]([O-])c2C)cc1 [(20), [(4-{[(3-Methyl-furoxan-4-yl)methyl]thio}benzoyl)oxy]methyl 2-(acetyloxy)benzoate] |  |  |  |  | melting point: 96 to 97 °C |
| CC(=O)Oc1ccccc1C(=O)OCOC(=O)c1ccc(OCCCO[N+](=O)[O-])cc1 [(2), ({4-[3-(Nitrooxy)propoxy]benzoyl}oxy)methyl 2-(acetyloxy)benzoate] | >98% | >98% | 0.017 ± 0.003 µM | 3 min |  |
| CC(=O)Oc1ccccc1C(=O)OCOC(=O)Cc1ccc(OCCCO[N+](=O)[O-])cc1 [(9)] | >98% | >98% | 0.3 ± 0.06 µM | 1.5 min |  |
| CC(=O)Oc1ccccc1C(=O)OCOC(=O)c1ccc(SCc2no[n+]([O-])c2C(N)=O)cc1 [(21), [(4-{[(3-Aminocarbonyl-furoxan-4-yl)methyl]thio}benzoyl)oxy]methyl 2-(acetyloxy)benzoate] |  |  |  |  | melting point: 149 to 151 °C |
| CC(=O)Oc1ccccc1C(=O)OCOC(=O)c1ccc(CC(CO[N+](=O)[O-])O[N+](=O)[O-])cc1 (centres unmarked) [(1), ({4-[2,3-Bis(nitrooxy)propyl]benzoyl}oxy)methyl 2-(acetyloxy)benzoate] | >98% | 100% | 0.052 ± 0.007 µM | 3.4 min |  |
| CC(=O)Oc1ccccc1C(=O)OCOC(=O)c1ccc(SCC(CO[N+](=O)[O-])O[N+](=O)[O-])cc1 (centres unmarked) [(16), [(4-{[2,3-Bis(nitrooxy)propyl]thio}benzoyl)oxy]methyl 2-(acetyloxy)benzoate] | >98% | >98% |  | 4.8 min |  |
| CC(=O)Oc1ccccc1C(=O)OCOC(=O)CCCCO[N+](=O)[O-] [(4)] |  |  | 1.9 ± 0.5 µM |  |  |
| CC(=O)Oc1ccccc1C(=O)OCOC(=O)CCCCC(CO[N+](=O)[O-])O[N+](=O)[O-] (centres unmarked) [(8), {[6,7-Bis(nitrooxy)heptanoyl]oxy}methyl 2-(acetyloxy)benzoate] | >98% | 100% | 0.52 ± 0.09 µM | 2.5 min |  |
| CC(=O)Oc1ccccc1C(=O)OCOC(=O)c1ccc(OCCCO[N+](=O)[O-])cc1O [(14), {[2-(Acetyloxy)benzoyl]oxy}methyl 2-hydroxy-4-[3-(nitrooxy)propoxy]benzoate] |  |  | 0.008 ± 0.0011 µM |  |  |
| CC(=O)Oc1ccccc1C(=O)OCOC(=O)c1ccc(OCC(CO[N+](=O)[O-])O[N+](=O)[O-])cc1 (centres unmarked) [(3), ({4-[2,3-Bis(nitrooxy)propoxy]benzoyl}oxy)methyl 2-(acetyloxy)benzoate] | >98% | >98% | 0.041 ± 0.007 µM | 5.4 min |  |
| CC(=O)Oc1ccccc1C(=O)OCOC(=O)c1ccc(SCc2no[n+]([O-])c2C#N)cc1 [(22), [(4-{[(3-Cyano-furoxan-4-yl)methyl]thio}benzoyl)oxy]methyl 2-(acetyloxy)benzoate] |  |  |  |  | melting point: 98.5 to 101.5 °C |
| CC(=O)Oc1ccccc1C(=O)OCOC(=O)c1ccccc1OC(=O)CCC(CO[N+](=O)[O-])O[N+](=O)[O-] (centres unmarked) [(13), [(2-{[4,5-Bis(nitrooxy)pentanoyl]oxy}benzoyl)oxy]methyl 2-(acetyloxy)benzoate] |  |  | 0.082 ± 0.014 µM |  |  |
| CC(=O)Oc1ccccc1C(=O)O [Aspirin, reference compound] |  |  |  | 63 min | vasodilating activity EC50 ± SE [2]: no effect |
| CC(=O)Oc1ccccc1C(=O)OCOC(=O)CCCCCO[N+](=O)[O-] [(5), {[6-(Nitrooxy)hexanoyl]oxy}methyl 2-(acetyloxy)benzoate] |  |  | 1.2 ± 0.2 µM |  |  |
| CC(=O)Oc1ccccc1C(=O)OCOC(=O)c1ccc(SCCCO[N+](=O)[O-])cc1 [(11), [(4-{[3-(Nitrooxy)propyl]thio}benzoyl)oxy]methyl 2-(acetyloxy)benzoate] | >98% | >98% |  | 2 min |  |
| CC(=O)Oc1ccccc1C(=O)OCOC(=O)Cc1ccc(OCC(CO[N+](=O)[O-])O[N+](=O)[O-])cc1 (centres unmarked) [(10), [(2-{4-[2,3-Bis(nitrooxy)propoxy]phenyl}acetyl)oxy]methyl 2-(acetyloxy)benzoate] |  |  | 0.27 ± 0.05 µM |  |  |
| CC(=O)Oc1ccccc1C(=O)OCOC(=O)c1ccc(CCCO[N+](=O)[O-])cc1 [(12), ({4-[3-(Nitrooxy)propyl]benzoyl}oxy)methyl 2-(acetyloxy)benzoate] |  |  | 0.075 ± 0.014 µM |  | IC50 [4, 5]: 41 µM; IC50 [4, 6]: 14 µM |
| CC(=O)Oc1ccccc1C(=O)OCOC(=O)c1ccc(S(=O)(=O)CCCO[N+](=O)[O-])cc1 [(15), [(4-{[3-(Nitrooxy)propyl]sulfonyl}benzoyl)oxy]methyl 2-(acetyloxy)benzoate] | >98% | 70% |  | 1 min | half-life at 250 μM ([1]; phosphate buffer 50 mM pH 7.4, phosphate buffer pH 7.4, 37 °C, read-out: t1/2 in buffered solution pH 7.4): ~720 min; IC50 [4, 5]: 34 µM; IC50 [4, 6]: 17 µM |
| CC(=O)Oc1ccccc1C(=O)OCOC(=O)CCCC(CO[N+](=O)[O-])O[N+](=O)[O-] (centres unmarked) [(6), {[5,6-Bis(nitrooxy)hexanoyl]oxy}methyl 2-(acetyloxy)benzoate] | >98% | 100% | 0.39 ± 0.06 µM | 2.7 min |  |
| CC(=O)Oc1ccccc1C(=O)OCOC(=O)CCCCCCO[N+](=O)[O-] [(7), {[7-(Nitrooxy)heptanoyl]oxy}methyl 2-(acetyloxy)benzoate] |  |  | 1.6 ± 0.2 µM |  |  |
| CC(=O)Oc1ccccc1C(=O)OC(C)OC(=O)c1ccc(SCCCO[N+](=O)[O-])cc1 (centres unmarked) [(24), 1-{[4-([3-(nitrooxy)propyl]thio}benzoyl)oxy]ethyl 2-(acetyloxy)Benzoate] | >98% | >98% |  | 4.2 min |  |
